Laboratory results as given in PMC6832219, “Synthesis of Novel Baicalein Amino Acid Derivatives and Biological Evaluation as Neuroprotective Agents” (Molecules, 2019).

Key:
H9C2 cells [1] = experiment: Toxicity on normal H9C2 cells (MTT assay); assay type: cell-based; conditions: MTT; for viability at 6.25 µM / viability at 12.5 µM / viability at 25 µM / viability at 50 µM: H9C2 cells, read-out: Survival Rate (%); for IC50: normal H9C2 cells
Protocol: To study cytotoxicity on normal cells, the cytotoxicity of compounds against normal H9C2 cells were tested.
(§1) The SH-SY5Y ([…]) and H9C2 ([…]) cell lines were obtained from the Chinese Academy of Medical Sciences and Peking Union Medical College. All of the cell lines were grown in dulbecco’s modified eagle medium (DMEM) with 10% (v/v) fetal bovine serum (FBS) and 1% (v/v) penicillin/streptomycin (Thermo Technologies, New York, NY, USA), under a humidified atmosphere containing 5% CO2 at 37 °C. The baicalein derivatives were dissolved in DMSO (Sigma, St. Louis, MO, USA) and added at various concentrations to the cell culture.
(§2) The protective effect of these compounds was evaluated on SH-SY5Y and H9C2 cell lines via the MTT method. The cells growing in the logarithmic phase were cultured in 96-well plates at a density 3 × 10^3 cells/well and incubated for 24 h. Then each well was treated with the required concentrations (50 µM concentrations, 25 µM concentrations, 12.5µM concentrations, 6.25 µM concentrations, and 3.125 µM concentrations) of baicalein derivatives, and incubated 36 h at 37 °C with 5% CO2. After that, the cells were induced by H2O2 (final concentration, […]) for 12 h. Control-differentiated cells were injected with new growth media at equal amounts. Before […] MTT solution (5 mg/mL) was added to each well, the cell culture fluid was discarded, and […] fresh cell culture fluid was added. The plate was incubated for a further 4 h at 37 °C. The cell supernatant medium was removed carefully, without disturbing the attached cells, and formazan crystals were solubilized by adding 150 μL DMSO into each well. The absorbance was measured at 490 nm with a plate reader (BIORAD 550 spectrophotometer, Bio-rad Life Science Development Ltd., Beijing, China). H2O2 was dissolved in DMEM medium. Wells without drugs were used as blanks. The EC50 values were defined as the concentrations that causes the maximum effect of 50%; IC50 values were defined as the concentration of compound which gives 50% growth inhibition, and were calculated using the GraphPad Prism 5. The proliferation rates of damaged SH-SY5Y cells were calculated in the following formula (1): [OD490 (compound) − OD490 (CoCl2)]/[OD490 (NGF) − OD490 (CoCl2)] × 100%(1) The EC50 values were using the equation −pEC50 = log Cmax − log 2 × (ΣP − 0.75 + 0.25Pmax + 0.25Pmin)(2) where Cmax is the maximum concentration, ΣP is the sum of proliferation rates, Pmax is the maximum value of the proliferation rate, and Pmin is the minimum value of the proliferation rate. Cell viability was expressed as a percentage of the control.
The inhibition rate was calculated in the following equation: % inhibition = 1 − (Sample group OD/Control group OD) × 100%(3)

H9C2 cells [2] = experiment: Toxicity on normal H9C2 cells (MTT assay); assay type: cell-based; conditions: read-out: Survival Rate (%)
injured SH-SY5Y cells = experiment: Protective effect against tert-butyl hydroperoxide-induced SH-SY5Y neurotoxicity cells (MTT assay); assay type: cell-based; conditions: Homo sapiens; for viability at 3.125 µM / viability at 6.25 µM / viability at 12.5 µM / viability at 25 µM / viability at 50 µM: injured SH-SY5Y cells, read-out: Proliferation Rate (%); for EC50: tert-butyl hydroperoxide-induced SH-SY5Y neurotoxicity, read-out: EC50 for protecting injured SH-SY5Y cells;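 for Proliferation Rate (%): 0% equals CoCl2-injured cells and 100% equals NGF-treated cells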
Protocol: The protective effects of baicalein derivatives in vitro was evaluated against tert-butyl, hydroperoxide-induced, SH-SY5Y neurotoxicity cells using an MTT assay. In addition, their toxicity evaluation was tested on normal H9C2 cells. The resulting proliferation rates (%) at different concentrations, as well as their 50% effective concentrations (EC50) for protecting damaged SH-SY5Y cells of the baicalein amino acid derivatives, are summarized in Table 2.
as §1, §2

| SMILES | viability at 6.25 µM (H9C2 cells [1]) [%] | viability at 12.5 µM (H9C2 cells [1]) [%] | viability at 25 µM (H9C2 cells [1]) [%] | viability at 50 µM (H9C2 cells [1]) [%] | IC50 (H9C2 cells [1]) [µM] | viability at 100 µM (H9C2 cells [2]) [%] | melting point [°C] | viability at 3.125 µM (injured SH-SY5Y cells) [%] | viability at 6.25 µM (injured SH-SY5Y cells) [%] | viability at 12.5 µM (injured SH-SY5Y cells) [%] | viability at 25 µM (injured SH-SY5Y cells) [%] | viability at 50 µM (injured SH-SY5Y cells) [%] | EC50 (injured SH-SY5Y cells) [µM] |
| --- | --- | --- | --- | --- | --- | --- | --- | --- | --- | --- | --- | --- | --- |
| CN(CC(=O)Oc1cc2oc(-c3ccccc3)cc(=O)c2c(O)c1OC(=O)CN(C)C(=O)OC(C)(C)C)C(=O)OC(C)(C)C [Compound 13, 7-[(2-{[(tert-butoxy)carbonyl](methyl)amino}acetyl)oxy]-5-hydroxy-4-oxo-2-phenyl-4H-chromen-6-yl 2-{[(tert-butoxy)carbonyl](methyl)amino}acetate] | 215 | 166 | 152 | 132 | > 100 | 123 | 205.1 | 40.1 | 92.1 | 91.5 | 73 | 65.9 | 5.42 |
| O=C(CC(NC(=O)OCc1ccccc1)C(=O)Oc1c(O)cc2oc(-c3ccccc3)cc(=O)c2c1O)OCc1ccccc1 (centres unmarked) [Compound 9, 1-benzyl 5,7-dihydroxy-4-oxo-2-phenyl-4H-chromen-6-yl 3-{[(benzyloxy)carbonyl]amino} butanedioate] | 153 | 133 | 130 | 115 | > 100 | 107 | 100.7 | 28.1 | 98.2 | 79.6 | 101 | 84.2 | 4.47 |
| CN(CC(=O)Oc1cc2oc(-c3ccccc3)cc(=O)c2c(O)c1O)C(=O)OC(C)(C)C [Compound 5, 5,6-dihydroxy-4-oxo-2-phenyl-4H-chromen-7-yl 2{[(tert-butoxy)carbonyl](methyl)amino}acetate] | 116 | 116 | 105 | 95.1 | > 100 | 76.9 | 218 | 28.4 | 37.6 | 76.4 | 78.1 | 60.7 | 9.96 |
| CC(C)CC(NC(=O)OC(C)(C)C)C(=O)Oc1cc2oc(-c3ccccc3)cc(=O)c2c(O)c1O (centres unmarked) [Compound 15, 5,6-dihydroxy-4-oxo-2-phenyl-4H-chromen-7-yl 2-{[(tert-butoxy)carbonyl]amino}-4-methyl-pentanoate] | 196 | 193 | 177 | 173 | > 100 | 159 | 199.3 | 17.8 | 42.8 | 42.5 | 41.3 | 22.3 | 23.9 |
| CCC(C)C(NC(=O)OCc1ccccc1)C(=O)Oc1cc2oc(-c3ccccc3)cc(=O)c2c(O)c1O (centres unmarked) [Compound 7, 5,6-dihydroxy-4-oxo-2-phenyl-4H-chromen-7-yl 2-{[(benzyloxy)carbonyl]amino}-3-methyl-pentanoate] | 152 | 147 | 145 | 139 | > 100 | 124 | 155.7 | 63.6 | 69.7 | 79.8 | 79.8 | 72.2 | 5.24 |
